US6900219B2, “ABCA-1 elevating compounds” (CV Therapeutics, Inc., priority 2002, dated 2005)

Test system: ABCA-1 gene
Assay: compounds tested and found to elevate cellular expression of the ABCA-1 gene (Examples 1-6; test not named)
Format: cell-based
Description: Activity testing is conducted as described in those patents and patent applications referenced above, and in the Examples below, and by methods apparent to one skilled in the art.

| Structure (SMILES) | cellular expression of the ABCA-1 gene |
| --- | --- |
| CC(=O)Nc1ccc(N=Nc2ccccc2)cc1 [N-[4-(phenyldiazenyl)phenyl]acetamide] | elevate cellular expression of the ABCA-1 gene |
| CS(=O)(=O)c1ccc2nc(NC(=O)c3ccco3)sc2c1 [2-furyl-N-[6-(methylsulfonyl)benzothiazol-2-yl]carboxamide] | elevate cellular expression of the ABCA-1 gene |
| CCCc1c(C(=O)Nc2nc3ccccc3s2)cnn1-c1ccc(Cl)cc1 [N-benzothiazol-2-yl[1-(4-chlorophenyl)-5-propylpyrazol-4-yl]carboxamide] | elevate cellular expression of the ABCA-1 gene |
| CC(C)(C)c1ccc(C(=O)NC2=NCCS2)cc1 [[4-(tert-butyl)phenyl]-N-(1,3-thiazolin-2-yl)carboxamide] | elevate cellular expression of the ABCA-1 gene |
| CCC(c1nc2ccccc2c(=O)n1-c1ccc(C)c(C)c1)N(CCOC)C(=O)Nc1ccc(Cl)cc1 (stereo not shown) [N-{[3-(3,4-dimethylphenyl)-4-oxo(3-hydroquinazolin-2-yl)]propyl}[(4-chlorophenyl)amino]-N-(2-methoxyethyl)carboxamide] | elevate cellular expression of the ABCA-1 gene |
| CCc1c(C(=O)N2CCN(C(=O)C(c3ccccc3)c3ccccc3)C(C)C2)cnn1-c1nc(-c2ccc(OC)cc2)cs1 (stereo not shown) [1-(4-{5-ethyl-1-[4-(4-methoxy-phenyl)-thiazol-2-yl]-1H-pyrazole-4-carbonyl}-2-methyl-piprazin-1-yl)-2,2-diphenyl-ethanone] | elevate cellular expression of the ABCA-1 gene |
| Nc1c(C(=O)Oc2ccccc2)oc2nc3c(cc12)CCC3 [phenyl 3-amino-5,6,7-trihydrocyclopenta[1,2-b]furano[4,5-e]pyridine-2-carboxylate] | elevate cellular expression of the ABCA-1 gene |
| CCc1c(C(=O)N2CCN(C(=O)C(C)C)C(C)C2)cnn1-c1nc(-c2ccc(OC)cc2)cs1 (stereo not shown) [1-(4-{5-ethyl-1-[4-(4-methoxy-phenyl)-thiazol-2-yl]-1H-pyrazole-4-carbonyl}-2-metyl-piperazin-1-yl)-2-methyl-propan-1-one] | elevate cellular expression of the ABCA-1 gene |
| CCc1c(C(=O)N2CCN(C(=O)C(CC)c3ccccc3)C(C)C2)cnn1-c1nc(-c2ccc(Cl)cc2)cs1 (stereo not shown) [1-(4-{1-[4-(4-chloro-phenyl)-thiazol-2-yl]-5-ethyl-1H-pyrazole-4-carbonyl}-2-methyl-piperazin-1-yl)-2-phenyl-butan-1-one] | elevate cellular expression of the ABCA-1 gene |
| Cc1ccc(-c2cnc(NC(=O)c3ccc(Cl)cc3)s2)cc1 [(4-chlorophenyl)-N-[5-(4-methylphenyl)(1,3-thiazol-2-yl)]carboxamide] | elevate cellular expression of the ABCA-1 gene |
| O=C(Nc1nc2ccccc2s1)c1sc2ccccc2c1Cl [N-benzothiazol-2-yl(3-chlorobenzo[b]thiophen-2-yl)carboxamide] | elevate cellular expression of the ABCA-1 gene |
| COc1ccc(/C=C/c2nc3ccccc3c(=O)[nH]2)cc1OC [2-[(1E)-2-(3,4-dimethoxyphenyl)vinyl]-3-hydroquinazolin-4-one] | elevate cellular expression of the ABCA-1 gene |
| O=C(Nc1ncc(-c2ccccc2)s1)c1ccc(F)cc1F [(2,4-difluorophenyl)-N-(5-phenyl(1,3-thiazol-2-yl)) carboxamide] | elevate cellular expression of the ABCA-1 gene |
| CCOC(=O)CCN(CCc1ccccc1)C(=O)c1ccc2c(c1)OCO2 [ethyl 3-[2H-benzo[d]1,3-dioxolen-5-yl-N-(2-phenylethyl)carbonylamino]propanoate] | elevate cellular expression of the ABCA-1 gene |
| O=C(Nc1nc2ccccc2s1)c1cccc(F)c1 [N-benzothiazol-2-yl(3-fluorophenyl)carboxamide] | elevate cellular expression of the ABCA-1 gene |
| Cn1cccc1CN(CCc1ccccn1)C(=O)c1ccc(Cl)cc1 [(4-chlorophenyl)-N-[(1-methylpyrrol-2-yl)methyl]-N-(2-(2-pyridyl)ethyl)carboxamide] | elevate cellular expression of the ABCA-1 gene |
| CCOC(=O)C1=C(NCCc2ccccc2)CCN(C(=O)c2ccc(-c3ccccc3)cc2)C1 [ethyl 4-[(2-phenylethyl)amino]-1-[(4-phenylphenyl)carbonyl]-1,2,5,6-tetrahydropyridine-3-carboxylate] | elevate cellular expression of the ABCA-1 gene |
| Cc1cccc(C)c1NC(=O)c1sc2ccccc2c1Cl [N-(2,6-dimethylphenyl)(3-chlorobenzo[b]thiophen-2-yl)carboxamide] | elevate cellular expression of the ABCA-1 gene |
| CCCCCc1ccc(NC(=O)NC2=NCCS2)cc1 [[(4-pentylphenyl)amino]-N-(1,3-thiazolin-2-yl)carboxamide] | elevate cellular expression of the ABCA-1 gene |
| Cc1ccc(C)c(NC(=O)c2sc3ccccc3c2Cl)c1 [N-(2,5-dimethylphenyl)(3-chlorobenzo[b]thiophen-2-yl)carboxamide] | elevate cellular expression of the ABCA-1 gene |

| Structure (SMILES) | cellular expression of the ABCA-1 gene |
| --- | --- |
| CCOc1ccc2nc(NC(=O)CC)sc2c1 [N-(6-ethoxybenzothiazol-2-yl)propanamide] | elevate cellular expression of the ABCA-1 gene |
| Cc1ccc(-c2csc(-n3ncc(C(=O)NC4CC4)c3C(C)C)n2)cc1 [5-isopropyl-1-(4-p-tolyl-thiazol-2-yl)-1H-pyrazole-4-carboxylic acid cyclopropylamide] | elevate cellular expression of the ABCA-1 gene |
| O=C(Nc1ncc(-c2ccccc2)s1)c1ccc(OC(F)(F)F)cc1 [N-(5-phenyl(1,3-thiazol-2-yl))[4-(trifluoromethoxy)phenyl]carboxamide] | elevate cellular expression of the ABCA-1 gene |
| O=C(NC1=NC(C(=O)O)CS1)c1ccc2c(c1)OCO2 (stereo not shown) [2-(2H-benzo[3,4-d]1,3-dioxolan-5-ylcarbonylamino)-1,3-thiazoline-4-carboxylic acid] | elevate cellular expression of the ABCA-1 gene |
| COc1ccc(C(=O)Nc2nc(-c3ccccc3)cs2)cc1 [(4-methoxyphenyl)-N-(4-phenyl(1,3-thiazol-2-yl))carboxamide] | elevate cellular expression of the ABCA-1 gene |
| O=C(Nc1ccc2c(c1)CCC2)NC1CCCCC1 [(cyclohexylamino)-N-indan-5-ylcarboxamide] | elevate cellular expression of the ABCA-1 gene |
| CCn1c2ccccc2c2cc(CN(CCc3ccccc3)C(=O)c3ccc4c(c3)OCO4)ccc21 [2H-benzo[d]1,3-dioxolen-5-yl-N-[(9-ethylcarbazol-3-yl)methyl]-N-(2-phenylethyl)carboxamide] | elevate cellular expression of the ABCA-1 gene |
| CCc1c(C(=O)NCCc2ccccc2)cnn1-c1nc(-c2ccc(C)cc2)cs1 [{5-ethyl-1-[4-(4-methylphenyl)(1,3-thiazol-2-yl)]pyrazol-4-yl}-N-(2-phenylethyl)carboxamide] | elevate cellular expression of the ABCA-1 gene |
| N#Cc1c(NC(=O)c2ccc(Br)o2)sc2ccccc12 [(5-bromo(2-furyl)-N-(3-cyanobenzo[b]thiophen-2-yl)carboxamide] | elevate cellular expression of the ABCA-1 gene |
| O=C(CCC1CCCC1)Nc1nc2ccccc2s1 [N-benzothiazol-2-yl-3-cyclopentylpropanamide] | elevate cellular expression of the ABCA-1 gene |
| CCOc1ccc2nc(NC(=O)NC(C)(C)C)sc2c1 [[t-butylamino]-N-(6-ethoxybenzothiazol-2-yl)carboxamide] | elevate cellular expression of the ABCA-1 gene |
| Cc1ccc(-c2ncc(-c3ccc(Cl)cc3)o2)cc1 [5-(4-chlorophenyl)-2-(4-methylphenyl)-1,3-oxazole] | elevate cellular expression of the ABCA-1 gene |
| CCCCCCCCCCCC(=O)N(/C=C/c1ccccc1)c1ccc(CC)cc1 [N-((1E)-2-phenylvinyl)-N-(4-ethylphenyl)dodecanamide] | elevate cellular expression of the ABCA-1 gene |
| O=C(CNC(=O)c1ccccc1F)c1ccc(Cl)cc1 [N-[2-(4-chlorophenyl)-2-oxoethyl](2-fluorophenyl)carboxamide] | elevate cellular expression of the ABCA-1 gene |
| CCC(c1nc2ccccc2c(=O)n1-c1ccc(Cl)cc1)N(CCOC)C(=O)Nc1ccc(F)cc1F (stereo not shown) [[(2,4-difluorophenyl)amino]-N-{[3-(4-chlorophenyl)-4-oxo(3-hydroquinazolin-2-yl)]propyl}-N-(2-methoxyethyl)carboxamide] | elevate cellular expression of the ABCA-1 gene |
| O=C(Nc1cccc(O)c1)Nc1ccc(Cl)c(Cl)c1 [N-(3,4-dichlorophenyl)[(3-hydroxyphenyl)amino]carboxamide] | elevate cellular expression of the ABCA-1 gene |
| CCCN(C(=O)Nc1ccc(Br)cc1)C(C)c1nc2cc(Cl)ccc2c(=O)n1-c1ccc(C)cc1 (stereo not shown) [3-(4-bromo-phenyl)-1-[1-(7-chloro-4-oxo-3-p-tolyl-3,4-dihydro-quinazolin-2-yl)-ethyl]-1-propyl-urea] | elevate cellular expression of the ABCA-1 gene |
| CC(C)CN(C(=O)Nc1cccc(Br)c1)C(C)c1nc2ccccc2c(=O)n1-c1ccc2ccccc2c1 (stereo not shown) [[(3-bromophenyl)amino]-N-(2-methylpropyl)-N-[(3-(2-naphthyl)-4-oxo(3-hydroquinazolin-2-yl))ethyl]carboxamide] | elevate cellular expression of the ABCA-1 gene |
| O=C(NC1=NCCS1)c1ccccc1F [(2-fluorophenyl)-N-(1,3-thiazolin-2-yl)carboxamide] | elevate cellular expression of the ABCA-1 gene |
| N#Cc1cccc(C(=O)Nc2nc3ccc(Cl)cc3s2)c1 [N-(6-chlorobenzothiazol-2-yl)(3-cyanophenyl)carboxamide] | elevate cellular expression of the ABCA-1 gene |
